Tests used:
OV2944 cells [1] = experiment: Analysis of survival after cell transfer (Kaplan Meier); assay type: in vivo, mouse; conditions: intraperitoneal, 3 nmoles/two days
Protocol: The purified OV2944 cells expressing the fluorescent protein tdTomato were transferred into the abdominal cavity of mice (B6C3F1 strain, 9 weeks old, female, CLEA Japan, Inc.) (1×10^5 cells/mouse). […] On Day 21, the abdominal organs were removed, and OV2944 cells expressing the fluorescent protein tdTomato in the liver were observed using a fluorescence stereomicroscope OV110 (Olympus Corporation).
Intraperitoneal injection was carried out in the same manner as in Experimental Example 13-1 and Experimental Example 13-2, and survival analysis was carried out thereafter to provide Experimental Example 14-1 and Experimental Example 14-2. For the survival curve according to the Kaplan Meier method, a significant difference was analyzed by log-rank test.

OV2944 cells [2] = experiment: Cell invasion assay (Matrigel Invasion Chamber); assay type: cell-based, mouse; conditions: for cell invasion, ranking of suppression: 8 μM each, versus 10 μM BSA
Protocol: (§1) Cell invasion was analyzed using a BD BioCoat (registered trademark) Matrigel Invasion Chamber (Becton, Dickinson and Company). First, a certain amount of cells (about 1×10^5 cells/well) were treated with 2 μM, 8 μM, or 20 μM mouse dicalcin at room temperature for 20 minutes.
(§2) The treated cells were washed by centrifugation treatment, and then plated in the upper chamber of a transwell preliminarily coated with Matrigel, followed by performing culture using DMEM (+10% FBS) as a medium.
(§3) About 16 hours later, the invading cells that had migrated into the lower chamber were fixed using 4% paraformaldehyde/phosphate buffer at room temperature for 10 minutes, and then stained with crystal violet, followed by excision of the membrane, embedding on a slide, and counting of the cell number.

OV2944 cells [3] = experiment: Cell binding experiment (fluorescently labeled protein/peptide, confocal microscope); design: species or system mouse; conditions: for cell-binding ability (fluorescence intensity): 5 μM rhodamine-labeled partial peptides, ranking
Protocol: The OV2944-HM-1 cell line (which may be referred to as “OV2944 cells” or, simply, “cells”), which is a commonly used cell line, was used. OV2944 cells were obtained from RIKEN BioResource Center (Cell No. RCB1483), and cultured in DMEM medium (+10% FBS) according to a conventional method.
Cultured cells were fixed on a glass plate (4% paraformaldehyde/phosphate buffer, room temperature, 10 minutes), and treated with sheep serum. Thereafter, mouse dicalcin (5 μM) fluorescently labeled with tetramethylrhodamine (TMR) was reacted with the cells in the presence of 1 mM CaCl2 (4° C., overnight). After washing with TBS buffer, analysis was carried out using a confocal microscope (Carl Zeiss). Further, cell nuclei were stained with DAPI.
An experiment was carried out in the same manner as in Experimental Example 1-1 except that the reaction was carried out in the presence of 1 mM EGTA (which may be referred to as “in the absence of calcium”).
An experiment was carried out in the same manner as in Experimental Example 1-1 except that immunostaining was carried out using an anti-mouse dicalcin antibody (Catalog No. MAB5167, R&D Systems) as a primary antibody, and an Alexa Fluor (registered trademark) 594-labeled anti-rat IgG antibody (Catalog No. A11007, Invitrogen) as a secondary antibody.
An experiment was carried out in the same manner as in Experimental Example 1-1 except that each of partial peptides p1 to p7 (5 μM) fluorescently labeled with rhodamine was used.

OVCAR cells [4] = experiment: Cell invasion assay; assay type: cell-based, human
Protocol: as §1, §2
as §3, with “number. The invasion index was calculated as {(number of stained cells)/(number of plated cells)}×100(%), and normalized by the later-mentioned result of Experimental Example 2-2, which was taken as 100(%).” for “number.”
The OVCAR-3 cell line (which may be referred to as “OVCAR cells” or, simply, “cells”), which is a commonly used cell line, was used. OVCAR cells were obtained from RIKEN BioResource Center (Cell No. RCB2135), and cultured in DMEM medium (+10% FBS) according to a conventional method. This line is a human ovarian cancer (adenocarcinoma)-derived cell line.
An analysis was carried out in the same manner as in Experimental Example 2-1 except that OVCAR cells were used as the cells, and that 8 μM or 20 μM human dicalcin was used instead of mouse dicalcin.
An analysis was carried out in the same manner as in Experimental Example 9-1 except that 20 μM BSA was used instead of human dicalcin.
An analysis was carried out in the same manner as in Experimental Example 2-1 except that OVCAR cells were used as the cells, and that 2 μM or 10 μM hDC-p6 was used as a partial peptide. Statistical analysis was carried out by unpaired Student t-test in order to analyze a significant difference.

OVCAR cells [5] = experiment: Cell survival assay; assay type: cell-based, human; conditions: 20 μM; versus 10 μM BSA
Protocol: (§4) First, a certain amount of cells (about 1×10^5 cells/well) were treated with 20 μM mouse dicalcin at room temperature for 20 minutes. The cells were then washed and aliquoted into a 96-well plate, followed by performing culture. One hour later, after washing with PBS buffer, the cells were fixed using 4% paraformaldehyde/phosphate buffer at room temperature for 10 minutes. The cells were then stained with crystal violet and solubilized, followed by measuring the absorbance (measurement wavelength, 550 nm) in order to analyze the cell survival rate. The cell survival rate was calculated as {(number of stained cells)/(number of plated cells)}×100(%). Normalization was carried out by the later-mentioned result of Experimental Example 4-2, which was taken as 100(%).
An experiment was carried out in the same manner as in Experimental Example 4-1 except that OVCAR cells were used as the cells, and that 20 μM human dicalcin was used instead of mouse dicalcin.
An experiment was carried out in the same manner as in Experimental Example 10-1 except that 10 μM BSA was used instead of human dicalcin.

OV2944 cells [6] = experiment: Cell survival assay (crystal violet); assay type: cell-based, mouse; conditions: 20 μM; versus 10 μM BSA
Protocol: as §4
An experiment was carried out in the same manner as in Experimental Example 4-1 except that 10 μM BSA was used instead of mouse dicalcin.

OV2944 cells [7] = experiment: Cell adhesion assay (Matrigel); assay type: cell-based, mouse; conditions: 8 or 20 μM
Protocol: First, a certain amount of cells (about 1×10^5 cells/well) were treated with 8 μM or 20 μM mouse dicalcin at room temperature for 20 minutes. After coating a 24-well plate with, and allowing gelation of, BD Matrigel (registered trademark) (Becton, Dickinson and Company), the pretreated cells were washed and plated therein.
About 1 hour later, nonadherent cells were aspirated. After washing, adherent cells were fixed using 4% paraformaldehyde/phosphate buffer at room temperature for 10 minutes, and then stained with crystal violet, followed by counting of the cell number. The adhesion index was calculated as {(number of stained cells)/(number of plated cells)}×100(%). Normalization was carried out by the later-mentioned result of Experimental Example 3-2, which was taken as 100(%).
An experiment was carried out in the same manner as in Experimental Example 3-1 except that mouse dicalcin was not added.
An experiment was carried out in the same manner as in Experimental Example 3-1 except that 10 μM BSA was used instead of mouse dicalcin.

## p1: partial peptide of mouse dicalcin, SEQ ID NO: 12, PTETERCIE; used as control peptide (listed as Mus musculus)
OV2944 cells [1]
  average number of days of survival: 32 days

## p2: partial peptide of mouse dicalcin, SEQ ID NO: 13, SLIAVFQKY (listed as Mus musculus)
OV2944 cells [2]
  cell invasion, ranking of suppression: followed by p2, p′7, and p5 in this order
OV2944 cells [3]
  cell-binding ability (fluorescence intensity): second highest cell-binding ability

## p4: partial peptide of mouse dicalcin, SEQ ID NO: 15, MNTELAAFTKNQKDPGVLDR (listed as Mus musculus)
OV2944 cells [3]
  cell-binding ability (fluorescence intensity): third highest cell-binding ability

## p5: partial peptide of mouse dicalcin, SEQ ID NO: 16, MMKKLDLNCDG (listed as Mus musculus)
OV2944 cells [2]
  cell invasion, ranking of suppression: followed by p2, p′7, and p5 in this order
OV2944 cells [3]
  cell-binding ability (fluorescence intensity): second highest cell-binding ability

## p7: partial peptide of mouse dicalcin, SEQ ID NO: 18, GGLAIACHDSFIQTSQKRI (listed as Mus musculus)
OV2944 cells [2]
  cell invasion, ranking of suppression: followed by p2, p′7, and p5 in this order
OV2944 cells [3]
  cell-binding ability (fluorescence intensity): second highest cell-binding ability

B1: human dicalcin: recombinant full-length human dicalcin (S100A11), SEQ ID NO:1 (protein, listed as Homo sapiens)
chain: AKISSPTETERCIESLIAVFQKYAGKDGYNYTLSKTEFLSFMNTELAAFTKNQKDPGVLDRMMKKLDTNSDGQLDFSEFLNLIGGLAMACHDSFLKAVPSQKRT
OVCAR cells [4]; 20 μM, normalized to BSA as 100%
  invasion index: 43.9%
OVCAR cells [4]; 8 or 20 μM human dicalcin, versus 20 μM BSA
  cell invasion (invasion index): suppresses the cell invasion in a concentration-dependent manner
OVCAR cells [5]
  cell survival rate: does not affect the survival of the cells

B2: mouse dicalcin: recombinant full-length mouse dicalcin (S100A11), SEQ ID NO:11, expressed in E. coli (protein, listed as Mus musculus)
chain: PTETERCIESLIAVFQKYSGKDGNNTQLSKTEFLSFMNTELAAFTKNQKDPGVLDRMMKKLDLNCDGQLDFQEFLNLIGGLAIACHDSFIQTSQKRI
OV2944 cells [6]
  cell survival rate: does not affect the survival of the cells
OV2944 cells [7]
  cell adhesion (adhesion index): suppresses the cell adhesion in a concentration-dependent manner
OV2944 cells [2]; 2, 8 or 20 μM, normalized to 10 μM BSA
  cell invasion (invasion index): suppresses the cell invasion in a concentration-dependent manner
OV2944 cells [3]; 5 μM TMR-labeled, 1 mM CaCl2 versus 1 mM EGTA
  binding to the cells (fluorescence): larger amount of mouse dicalcin binds to the cells in the presence of calcium

Source: patent US11696938B2, “Human cancer cell metastasis inhibitory agent and human cancer cell determination agent” (priority 2017, dated 2023)
